Molecules are shown by their SMILES.

In experiment [1] the target is T1, Her3 (Homo sapiens, UniProt P21860). The experiment is described as follows: Her3 protein degradation by Western blot. In kind it is cell-based. On the set-up: endogenous in cells; host or cells: PC9-GR4; Ovacar 8; key: (+): Her3 protein was degraded; (−): Her3 protein was not degraded. Conditions: PC9-GR4 or Ovacar 8 cell lines, 2 μM, 4 hour and 8 hour. As for the experimental part: Cells are seeded at the desired density the day before treatment starts with bifunctional compounds of the application at various concentration. After 4 to 12 hrs, cells are washed with buffer and lysed. The lysates are centrifuged and the supernatant is collected. Protein concentrations are measured using a protein assay kit, such as the BCA protein assay kit, Pierce, catalog number 23225) and normalized. Samples are run on a SDS-PAGE gel, and transferred to a PVDF membrane. The PVDF membrane is probed with the appropriate antibody.
Her3 protein degradation was assessed by Western blots after treatment of PC9-GR4 cell lines or Ovacar 8 cell lines with 2 μM of representative compounds for 4 hour and 8 hour.
Cells were seeded at a density of […] per 6 cm plate the day before treatment started with representative compounds of the application at the indicated concentration. After 4 to 12 hours, cells were washed with phosphate-buffered saline. Lysis buffer included 50 mM Tris-HCl, 150 mM NaCl, 1% NP-40, and 5 mM EDTA, pH 7.4+/−0.2, Roche PhosSTOP phosphatase inhibitor cocktail tablets and Roche Complete Protease inhibitor cocktail tablets. Cell lysis was accomplished by the addition of lysis buffer for 5-10 minutes on ice. Lysates were centrifuged in a microcentrifuge at 14,000 r.p.m. for 15 minutes at 4° C. and the supernatant was collected. Protein concentrations were measured using BCA protein assay kit (Pierce, catalog number 23225) and normalized. Samples were run on a 4%-12% SDS-PAGE gel at 120 V. After transfer, the PVDF membrane was probed with anti-Her3 antibody, Santa Cruz, catalog number sc-285 at 1:1000 dilution.
Background: Immunoblotting shows a protein as a band on a membrane.
Target sequence in this assay (P21860 20-1342): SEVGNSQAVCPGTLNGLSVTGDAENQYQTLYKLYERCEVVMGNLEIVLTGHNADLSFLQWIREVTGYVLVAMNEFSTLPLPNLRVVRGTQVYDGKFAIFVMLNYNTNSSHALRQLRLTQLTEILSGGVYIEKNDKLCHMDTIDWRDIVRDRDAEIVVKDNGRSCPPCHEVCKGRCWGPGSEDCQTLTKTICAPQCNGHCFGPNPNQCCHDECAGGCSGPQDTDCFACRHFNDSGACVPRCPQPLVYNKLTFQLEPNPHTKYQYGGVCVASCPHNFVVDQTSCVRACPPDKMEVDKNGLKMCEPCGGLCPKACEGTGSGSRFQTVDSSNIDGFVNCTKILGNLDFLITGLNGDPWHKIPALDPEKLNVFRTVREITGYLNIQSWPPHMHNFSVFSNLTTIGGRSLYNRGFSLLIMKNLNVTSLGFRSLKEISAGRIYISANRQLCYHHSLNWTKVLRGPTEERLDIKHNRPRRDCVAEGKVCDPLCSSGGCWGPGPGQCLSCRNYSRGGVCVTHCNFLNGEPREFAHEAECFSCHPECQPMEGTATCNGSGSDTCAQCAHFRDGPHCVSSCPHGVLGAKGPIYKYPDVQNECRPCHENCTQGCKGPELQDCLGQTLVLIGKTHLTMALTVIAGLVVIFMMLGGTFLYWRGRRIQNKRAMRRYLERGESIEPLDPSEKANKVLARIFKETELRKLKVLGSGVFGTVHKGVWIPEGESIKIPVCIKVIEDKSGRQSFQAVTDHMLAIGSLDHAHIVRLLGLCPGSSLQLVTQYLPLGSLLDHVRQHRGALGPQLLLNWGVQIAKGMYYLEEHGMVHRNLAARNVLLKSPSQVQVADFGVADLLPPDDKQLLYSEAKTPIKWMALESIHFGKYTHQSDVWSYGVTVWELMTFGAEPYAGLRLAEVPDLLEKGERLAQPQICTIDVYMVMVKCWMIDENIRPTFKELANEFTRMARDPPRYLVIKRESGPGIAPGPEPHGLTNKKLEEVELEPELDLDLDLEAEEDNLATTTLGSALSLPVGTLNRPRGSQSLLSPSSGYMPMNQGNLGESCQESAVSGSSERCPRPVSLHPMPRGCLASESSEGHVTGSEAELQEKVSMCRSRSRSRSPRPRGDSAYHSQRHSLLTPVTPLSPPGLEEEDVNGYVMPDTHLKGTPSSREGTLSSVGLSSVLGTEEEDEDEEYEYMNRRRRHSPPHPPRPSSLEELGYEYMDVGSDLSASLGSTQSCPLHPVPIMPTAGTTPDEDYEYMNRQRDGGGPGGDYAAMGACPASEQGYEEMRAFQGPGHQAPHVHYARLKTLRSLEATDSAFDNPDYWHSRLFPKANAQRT

Experiment [2] has as its system PC9-GR4. Nature of the experiment: Anti-proliferation MTS assay, PC9-GR4. The format is cell-based. The following applies: 72 h, PC9-GR4 cells, 3 days, read-out: Cell lines (EC50, μM) PC9-GR4. As for the experimental part:
(§1) Cells are seeded and incubated for 3 d after bifunctional compounds of the application are added. Cell viability is measured via MTS Assay. This assay uses a colorimetric method to determine the number of viable cells based on the bioreduction of MTS by cells to a formazan product that is soluble in cell culture medium and can be detected spectrophotometrically. In a typical experiment, the supernatant is removed and replaced by 100 μl of RPMI media supplemented with MTS reagent and PMS. The plates are measured with Perkin Elmer EnVision after reaching an optical density (OD) of 1.0-2.0 at a wavelength of 490 nm. The cell numbers are normalized compared to DMSO control, and the EC50 values are calculated using GraphPad Prism.
(§2) Five cell lines, PC9-GR4, 826-GR6, Ovacar 8, A549, and Ovacar 5 were grown and treated with representative compounds Viability of the cells after the treatment was assessed by MTS assay.
(§3) The anti-proliferation assay was carried out using 96-well clear bottom plates. […] Cell viability was measured via MTS Assay. This assay uses a colorimetric method to determine the number of viable cells based on the bioreduction of MTS by cells to a formazan product that is soluble in cell culture medium and can be detected spectrophotometrically. […] The plates were measured with Perkin Elmer EnVision after reaching an optical density (OD) of 1.0-2.0 at a wavelength of 490 nm. […]
A general note: Formazan colour is commonly taken as a measure of viable cells.

In experiment [3] the test system is 826-GR6. Nature of the experiment: Anti-proliferation MTS assay, 826-GR6. The format is cell-based. The following applies: 72 h, 826-GR6 cells, 3 days, read-out: Cell lines (EC50, μM) 826-GR6. As for the experimental part:
as §1, §2, §3

Experiment [4] has as its system Ovacar 8. Nature of the experiment: Anti-proliferation MTS assay, Ovacar 8. In kind it is cell-based. The following applies: 72 h, Ovacar 8 cells, 3 days, read-out: Cell lines (EC50, μM) Ovacar 8. As for the experimental part:
as §1, §2, §3

Experiment [5] concerns A549. The experiment is described as follows: Anti-proliferation MTS assay, A549. The format is cell-based. Conditions: Homo sapiens, 72 h, A549 cells, 3 days, read-out: Cell lines (EC50, μM) A549. As for the experimental part: as §1, §2, §3
Experiment [6] relates to Ovacar 5. Nature of the experiment: Anti-proliferation MTS assay, Ovacar 5. The format is cell-based. Conditions: 72 h, Ovacar 5 cells, 3 days, read-out: Cell lines (EC50, μM) Ovacar 5. As for the experimental part: as §1, §2, §3
Experiment [7] concerns the target T1, Her3. Nature of the experiment: LanthaScreen Eu kinase binding assay. On the set-up: purchased Life Technologies. The following applies: read-out: Binding Affinities (IC50). As for the experimental part:
Lantha screening is performed by following the method reported in Nature Chemical Biology, 10, 1006-1012 (2014).
Binding affinities (IC50) of representative compounds were measured by the Life Technologies LanthaScreen Eu kinase binding assay, which was previously described (Xie T. et al., Nat. Chem. Biol. 2014, 10, 1006-1012).
Lantha screening was performed by following the method reported in Nature Chemical Biology, 10, 1006-1012 (2014).
Target sequence in this assay (P21860 20-1342, species assumed): as the sequence (P21860 20-1342) above

As to `C=CC(=O)Nc1cc(-c2nn(C3CCN(CCOCCOCCOCCC(=O)N[C@@H](C(=O)N4C[C@@H](O)C[C@@H]4C(=O)NCc4ccc(-c5scnc5C)cc4)C(C)(C)C)CC3)c3ncnc(N)c23)ccc1Oc1ccccc1` [Compound PP1], the “Her3 Degradation” value in experiment [1] is “−”.

For `C=CC(=O)Nc1cc(-c2nn(C3CCN(CC(=O)N[C@@H](C(=O)N4C[C@@H](O)C[C@@H]4C(=O)NCc4ccc(-c5scnc5C)cc4)C(C)(C)C)CC3)c3ncnc(N)c23)ccc1Oc1ccccc1` [Compound PP2], the EC50 is 5 to 15 µM in experiment [2]; 5 to 15 µM in experiment [3]; under 5 µM in experiment [4]; 5 to 15 µM in experiment [5]; 5 to 15 µM in experiment [6]. Moreover, in experiment [1], the “Her3 Degradation” value is “+”.

With `C=CC(=O)Nc1cc(-c2nn(C3CCN(CC(=O)NCCCCNC(=O)COc4cccc5c4C(=O)N(C4CCC(=O)NC4=O)C5=O)CC3)c3ncnc(N)c23)ccc1Oc1ccccc1` (stereo not drawn) [Compound PP3], the “Her3 Degradation” value in experiment [1] is “+”.

For the molecule `C=CC(=O)Nc1cc(-c2nn(C3CCN(CC(=O)NCCCCCCCCNC(=O)COc4cccc5c4C(=O)N(C4CCC(=O)NC4=O)C5=O)CC3)c3ncnc(N)c23)ccc1Oc1ccccc1` (stereo not drawn) [Compound PP4], the EC50 in experiment [4] is 5 to 15 µM. Further, the “Her3 Degradation” value in experiment [1] was “+”.

Regarding `C=CC(=O)Nc1cc(-c2nn(C3CCN(CC(=O)NCCCOCCOCCOCCCNC(=O)COc4cccc5c4C(=O)N(C4CCC(=O)NC4=O)C5=O)CC3)c3ncnc(N)c23)ccc1Oc1ccccc1` (stereo not drawn) [Compound PP5], the “Her3 Degradation” value in experiment [1] is “−”.

As for `Nc1ncnc2c1c(-c1ccc(Oc3ccccc3)c([N+](=O)[O-])c1)nn2C1CCN(CC(=O)NCCOCCOCCOCCNC(=O)COc2cccc3c2C(=O)N(C2CCC(=O)NC2=O)C3=O)CC1` (stereo not drawn) [Compound PP6], the half-maximal inhibitory concentration (IC50) in experiment [7] lay within 0.01 to 0.1 µM. In addition, the “Her3 Degradation” value in experiment [1] was “−”.

Consider `Nc1ncnc2c1c(-c1ccc(Oc3ccccc3)c([N+](=O)[O-])c1)nn2C1CCN(CC(=O)NCCCCNC(=O)COc2cccc3c2C(=O)N(C2CCC(=O)NC2=O)C3=O)CC1` (stereo not drawn) [Compound PP7], for which the IC50 in experiment [7] lay in the range of 0.01 to 0.1 µM. For the same molecule, the “Her3 Degradation” value in experiment [1] is recorded as “−”.

As to `Cc1ncsc1-c1ccc(CNC(=O)[C@@H]2C[C@@H](O)CN2C(=O)[C@@H](NC(=O)CCOCCOCCOCCN2CCC(n3nc(-c4ccc(Oc5ccccc5)c([N+](=O)[O-])c4)c4c(N)ncnc43)CC2)C(C)(C)C)cc1` [Compound PP8], the EC50 in experiment [2] was over 15 µM. Moreover, the IC50 in experiment [7] is over 0.1 µM. In addition, in experiment [1], the “Her3 Degradation” value is “+”.

One may read the EC50 as the midpoint of the concentration-response curve. As usually defined, the IC50 is the midpoint of a concentration-inhibition curve.

Source of the values: patent publication US20200216454A1, “BIFUNCTIONAL MOLECULES FOR HER3 DEGRADATION AND METHODS OF USE” (Dana-Farber Cancer Institute, Inc., priority 2016, published 2020).
